Reference: US20190135793A1, “HETEROCYCLIC INHIBITORS OF KDM5 FOR THE TREATMENT OF DISEASE” (Board of Regents, The University of Texas System, priority 2017, published 2019)
Where two headings read alike, the source gives them in different places.

Tests used:
[1] = biological target: T1, KDM5B (Homo sapiens, UniProt Q9UGL1); assay: biochemical
T1 construct: Full length of KDM5B and KDM4C protein were purchased from Active Motif; purchased Active Motif 31832
How it was run: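 KDM5B (0.5 nM final) was preincubated with compound for 15 min at room temperature, then reacted with biotinylated peptide (3 nM final) for 25 min at room temperature.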

[2] = biological target: T2, KDM4C (Homo sapiens, UniProt Q9H3R0); assay: KDM4C AlphaScreen assay; format: biochemical; conditions: AlphaScreen; full length KDM4C 0.2 nM; biotinylated H3K9Me3 peptide 3 nM; 30 minutes at room temperature
T2 construct: Full length of KDM5B and KDM4C protein were purchased from Active Motif; purchased Active Motif 31858
T2 sequence (Q9H3R0 1-1056): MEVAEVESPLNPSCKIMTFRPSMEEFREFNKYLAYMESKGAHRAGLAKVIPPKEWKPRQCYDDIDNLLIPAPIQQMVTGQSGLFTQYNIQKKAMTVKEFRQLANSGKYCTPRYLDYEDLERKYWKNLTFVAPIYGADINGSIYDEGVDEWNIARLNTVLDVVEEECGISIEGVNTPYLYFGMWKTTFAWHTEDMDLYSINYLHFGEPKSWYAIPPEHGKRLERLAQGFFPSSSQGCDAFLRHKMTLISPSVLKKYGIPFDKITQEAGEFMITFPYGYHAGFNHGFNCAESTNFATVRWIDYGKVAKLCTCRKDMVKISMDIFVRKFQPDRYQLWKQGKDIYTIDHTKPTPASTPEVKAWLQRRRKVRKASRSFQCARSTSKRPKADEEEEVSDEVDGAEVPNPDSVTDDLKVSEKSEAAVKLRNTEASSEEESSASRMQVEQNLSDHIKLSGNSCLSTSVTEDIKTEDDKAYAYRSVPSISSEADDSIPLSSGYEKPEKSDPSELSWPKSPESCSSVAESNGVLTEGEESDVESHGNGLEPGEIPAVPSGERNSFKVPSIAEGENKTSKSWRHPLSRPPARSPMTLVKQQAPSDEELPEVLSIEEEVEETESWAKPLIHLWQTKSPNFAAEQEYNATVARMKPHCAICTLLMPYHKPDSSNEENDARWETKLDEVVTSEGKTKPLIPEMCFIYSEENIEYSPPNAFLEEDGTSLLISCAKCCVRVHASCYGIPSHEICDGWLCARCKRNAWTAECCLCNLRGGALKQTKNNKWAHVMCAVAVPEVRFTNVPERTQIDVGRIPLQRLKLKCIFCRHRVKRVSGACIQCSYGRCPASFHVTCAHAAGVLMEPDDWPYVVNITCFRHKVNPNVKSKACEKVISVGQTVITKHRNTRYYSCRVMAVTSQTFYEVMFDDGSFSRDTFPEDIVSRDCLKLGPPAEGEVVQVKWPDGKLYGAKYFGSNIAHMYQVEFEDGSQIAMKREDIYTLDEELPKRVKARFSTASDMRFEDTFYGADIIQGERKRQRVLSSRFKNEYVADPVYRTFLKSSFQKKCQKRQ
How it was run: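 Full-length KDM4C (0.2 nM final) was preincubated 15 min at RT with compound in HEPES pH 7.4 with Tween-20, BSA and TCEP. The reaction ran 30 min at RT after adding biotinylated peptide (3 nM final) in buffer with Fe(II), α-ketoglutarate and ascorbate. EDTA-containing AlphaScreen beads stopped it; IC50 was curve-fitted.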

[3] = AlphaScreen, full length KDM5B 0.5 nM, biotinylated H3K4Me3 peptide 3 nM, 25 minutes at room temperature, read-out: KDM5B (IC50)

T1 sequence (Q9UGL1 whole entry): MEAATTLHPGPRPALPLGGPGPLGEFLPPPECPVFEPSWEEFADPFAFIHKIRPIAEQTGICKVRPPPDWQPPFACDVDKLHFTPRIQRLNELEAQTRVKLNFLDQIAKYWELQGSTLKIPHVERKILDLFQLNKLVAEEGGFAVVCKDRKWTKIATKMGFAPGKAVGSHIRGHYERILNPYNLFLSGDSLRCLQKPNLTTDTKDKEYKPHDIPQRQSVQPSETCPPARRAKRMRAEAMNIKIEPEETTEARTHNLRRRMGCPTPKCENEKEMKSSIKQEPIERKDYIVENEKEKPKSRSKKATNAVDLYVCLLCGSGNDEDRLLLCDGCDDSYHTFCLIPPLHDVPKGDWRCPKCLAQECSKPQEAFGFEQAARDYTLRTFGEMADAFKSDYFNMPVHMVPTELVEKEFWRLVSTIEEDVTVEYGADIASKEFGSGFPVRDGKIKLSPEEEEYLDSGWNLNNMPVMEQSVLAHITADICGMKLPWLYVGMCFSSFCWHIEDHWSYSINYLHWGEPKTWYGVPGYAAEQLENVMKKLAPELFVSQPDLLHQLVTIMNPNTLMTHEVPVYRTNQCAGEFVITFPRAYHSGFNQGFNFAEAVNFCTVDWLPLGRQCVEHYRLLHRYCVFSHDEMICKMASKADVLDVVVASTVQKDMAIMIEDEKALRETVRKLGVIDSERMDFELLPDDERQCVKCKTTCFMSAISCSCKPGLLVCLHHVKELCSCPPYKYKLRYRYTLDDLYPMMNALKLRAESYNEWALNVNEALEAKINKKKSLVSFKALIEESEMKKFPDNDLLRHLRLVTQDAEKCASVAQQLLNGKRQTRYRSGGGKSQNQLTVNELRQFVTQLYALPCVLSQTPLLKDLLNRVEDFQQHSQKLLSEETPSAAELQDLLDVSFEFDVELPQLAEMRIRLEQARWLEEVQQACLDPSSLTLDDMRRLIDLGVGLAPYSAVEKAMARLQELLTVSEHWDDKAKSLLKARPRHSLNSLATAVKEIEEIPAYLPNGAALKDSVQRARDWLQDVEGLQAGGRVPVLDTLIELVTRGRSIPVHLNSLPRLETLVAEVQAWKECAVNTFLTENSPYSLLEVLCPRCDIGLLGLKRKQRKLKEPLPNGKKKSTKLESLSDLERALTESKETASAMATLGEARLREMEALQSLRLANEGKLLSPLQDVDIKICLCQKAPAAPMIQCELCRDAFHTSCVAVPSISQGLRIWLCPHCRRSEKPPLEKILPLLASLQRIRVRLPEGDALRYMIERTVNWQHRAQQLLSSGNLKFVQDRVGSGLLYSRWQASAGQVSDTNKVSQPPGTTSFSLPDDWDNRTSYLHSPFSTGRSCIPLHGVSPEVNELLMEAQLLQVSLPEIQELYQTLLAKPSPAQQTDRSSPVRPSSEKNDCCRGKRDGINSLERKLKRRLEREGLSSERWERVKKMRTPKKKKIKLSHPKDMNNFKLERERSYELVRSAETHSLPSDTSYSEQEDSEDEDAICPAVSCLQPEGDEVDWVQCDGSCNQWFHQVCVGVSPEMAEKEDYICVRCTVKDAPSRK

Row | Structure (SMILES) | IC50 [1, 3] [nM] | IC50 [2] [nM] | IC50 [1] [nM]
1 | CC(C)c1c(O)nc(-n2ccnc2)nc1-c1cnn(CC(=O)NCCN2CCCC2=O)c1 [Example 109, 2-{4-[6-Hydroxy-2-(1H-imidazol-1-yl)-5-(propan-2-yl)pyrimidin-4-yl]-1H-pyrazol-1-yl}-N-[2-(2-oxo-pyrrolidin-1-yl)ethyl]-acetamide] | 20 | 1540 | 
2 | CC(C)Cc1ccc(-c2nc(-n3ccnc3)nc(O)c2C(C)C)cc1 [Example 86, 2-(1H-Imidazol-1-yl)-6-[4-(2-methylpropyl)phenyl]-5-(propan-2-yl)pyrimidin-4-ol] | 1130 | 10000 | 
3 | CC(C)c1c(O)nc(-n2ccnc2)nc1-c1cnn(CC2CC2)c1 [Example 52, 6-[1-(Cyclopropylmethyl)-1H-pyrazol-4-yl]-2-(1H-imidazol-1-yl)-5-(propan-2-yl)pyrimidin-4-ol] |  | 840 | 14
4 | CC(C)c1c(O)nc(-n2ccnc2)nc1OCCN1CCCC1=O [Example 132, 1-(2-{[6-Hydroxy-2-(1H-imidazol-1-yl)-5-(propan-2-yl)pyrimidin-4-yl]oxy}ethyl)-pyrrolidin-2-one] |  | 2410 | 30
5 | CC(C)c1c(O)nc(-n2ccnc2)nc1-c1cnn(C(C)C)c1 [Example 1, 2-(1H-imidazol-1-yl)-5-isopropyl-6-(1-isopropyl-1H-pyrazol-4-yl)pyrimidin-4-ol] |  | 1050 | 12
6 | CC(C)c1c(O)nc(-n2ccnc2)nc1OCCN1CCOCC1 [Example 123, 2-(1H-Imidazol-1-yl)-6-[2-(morpholin-4-yl)ethoxy]-5-(propan-2-yl)pyrimidin-4-ol] |  | 1590 | 9
7 | CC(=O)NCc1ccc(-c2nc(-n3ccnc3)nc(O)c2C(C)C)cc1 [Example 43, N-({4-[6-Hydroxy-2-(1H-imidazol-1-yl)-5-(propan-2-yl)pyrimidin-4-yl]phenyl}-methyl)acetamide] | 9 | 1110 | 
8 | CC(C)c1c(O)nc(-n2ccnc2)nc1-c1cnn(CC(=O)O)c1 [Example 5, 2-(4-(6-Hydroxy-2-(1H-imidazol-1-yl)-5-isopropylpyrimidin-4-yl)-1H-pyrazol-1-yl)acetic acid] |  | 7450 | 117
9 | CC(C)c1c(O)nc(-n2ccnc2)nc1OCCN1CCN(C)CC1 [Example 122, 2-(1H-Imidazol-1-yl)-6-[2-(4-methylpiperazin-1-yl)ethoxy]-5-(propan-2-yl)pyrimidin-4-ol] | 7 | 1270 | 
10 | CC(C)c1c(O)nc(-n2ccnc2-c2ccccn2)nc1-c1cccc(CNS(C)(=O)=O)c1 [Example 89, N-({3-[6-Hydroxy-5-(propan-2-yl)-2-[2-(pyridin-2-yl)-1H-imidazol-1-yl]pyrimidin-4-yl]phenyl}methyl)methane-sulfonamide] | 266 | 20000 | 
11 | Cc1nc(-c2c[nH]cn2)nc(O)c1C(C)C [Example 21, 2-(1H-imidazol-4-yl)-5-isopropyl-6-methylpyrimidin-4-ol] |  | 21100 | 1930
12 | CC(C)c1c(O)nc(-n2ccnc2)nc1OCC(=O)N1CCOCC1 [Example 142, 2-{[6-Hydroxy-2-(1H-imidazol-1-yl)-5-(propan-2-yl)pyrimidin-4-yl]oxy}-1-(morpholin-4-yl)ethan-1-one] |  | 2130 | 35
13 | CC(C)c1c(O)nc(-n2ccnc2)nc1-c1cnn(C2CCOCC2)c1 [Example 59, 2-(1H-Imidazol-1-yl)-6-[1-(oxan-4-yl)-1H-pyrazol-4-yl]-5-(propan-2-yl)pyrimidin-4-ol] |  | 746 | 16
14 | CC(C)c1c(O)nc(-n2ccnc2)nc1OCCC1CCN(C)CC1 [Example 11, 2-(1H-imidazol-1-yl)-6-[2-(1-methylpiperidin-4-yl)ethoxy]-5-(propan-2-yl)pyrimidin-4-ol] |  | 1210 | 7
15 | CC(C)c1c(O)nc(-n2ccnc2)nc1-c1cnn(C2CCC2)c1 [Example 49, 6-(1-Cyclobutyl-1H-pyrazol-4-yl)-2-(1H 1H-imidazol-1-yl)-5-(propan-2-yl)pyrimidin-4-ol] |  | 716 | 13
16 | CC(C)c1c(O)nc(-n2ccnc2)nc1-c1cnn(CC(=O)NCC2CN(C)CCO2)c1 (stereo not drawn) [Example 97, 2-{4-[6-Hydroxy-2-(1H-imidazol-1-yl)-5-(propan-2-yl)pyrimidin-4-yl]-1H-pyrazol-1-yl}-N-[(4-methyl-morpholin-2-yl)methyl]-acetamide] |  | 613 | 7
17 | Cc1nc(-n2ccnc2N)nc(O)c1C(C)C [Example 23, 2-(2-aminoimidazol-1-yl)-5-isopropyl-6-methyl-pyrimidin-4-ol] |  | 775 | 24
18 | Cc1nc(-c2cncs2)nc(O)c1C(C)C [Example 155, 6-Methyl-5-(propan-2-yl)-2-(1,3-thiazol-5-yl)-pyrimidin-4-ol] |  | 1650 | 65
19 | CCc1c(C)nc(-c2cncs2)nc1O [Example 156, 5-Ethyl-6-methyl-2-(1,3-thiazol-5-yl)-pyrimidin-4-ol] |  | 8060 | 660
20 | Cc1nc(-n2cncc2CO)nc(O)c1C(C)C [Example 24a, 2-[5-(hydroxymethyl)imidazol-1-yl]-5-isopropyl-6-methyl-pyrimidin-4-ol] |  | 499 | 45
21 | CC(C)c1c(O)nc(-n2ccnc2)nc1OCC(=O)O [Example 15, 2-{[6-hydroxy-2-(1H-imidazol-1-yl)-5-(propan-2-yl)pyrimidin-4-yl]oxy}acetic acid] |  | 10300 | 651
22 | CC(C)c1c(O)nc(-n2ccnc2)nc1-c1ccccc1 [Example 83, 2-(1H-Imidazol-1-yl)-6-phenyl-5-(propan-2-yl)-pyrimidin-4-ol] |  | 2690 | 89
23 | CNC(=O)c1cccc(-c2nc(-n3ccnc3)nc(O)c2C(C)C)c1 [Example 57, 3-[6-Hydroxy-2-(1H-imidazol-1-yl)-5-(propan-2-yl)pyrimidin-4-yl]-N-methyl-benzamide] |  | 2030 | 16
24 | CC(C)c1c(O)nc(-n2ccnc2)nc1OCc1ccccc1 [Example 134, 6-(Benzyloxy)-2-(1H-imidazol-1-yl)-5-(propan-2-yl)pyrimidin-4-ol] |  | 1450 | 31
25 | CC(C)c1c(O)nc(-n2ccnc2)nc1OCC(=O)NS(C)(=O)=O [Example 17, 2-{[6-hydroxy-2-(1H-imidazol-1-yl)-5-(propan-2-yl)pyrimidin-4-yl]oxy}-N-methanesulfonylacetamide] |  | 9570 | 148
26 | CC(C)c1c(O)nc(-n2ccnc2)nc1OC1CCOC1 (stereo not drawn) [Example 135, 2-(1H-Imidazol-1-yl)-6-(oxolan-3-yloxy)-5-(propan-2-yl)pyrimidin-4-ol] |  | 2050 | 47
27 | CC(C)c1c(O)nc(-n2ccnc2)nc1OCCC1CCOCC1 [Example 131, 2-(1H-Imidazol-1-yl)-6-[2-(oxan-4-yl)ethoxy]-5-(propan-2-yl)pyrimidin-4-ol] |  | 2090 | 27
28 | CC(C)c1c(O)nc(-n2ccnc2)nc1-c1cnn(CC(=O)N2CCCC(C#N)C2)c1 (stereo not drawn) [Example 103, 1-(2-{4-[6-Hydroxy-2-(1H-imidazol-1-yl)-5-(propan-2-yl)pyrimidin-4-yl]-1H-pyrazol-1-yl}acetyl)-piperidine-3-carbonitrile] |  | 909 | 15
29 | CC(C)c1c(O)nc(-n2ccnc2)nc1-c1cccc(C#N)c1 [Example 79, 3-[6-Hydroxy-2-(1H-imidazol-1-yl)-5-(propan-2-yl)pyrimidin-4-yl]benzonitrile] |  | 5190 | 40
30 | CC(C)c1c(O)nc(-n2ccnc2)nc1-c1cnn(CC(=O)NCCN(C)c2ccccc2)c1 [Example 102, 2-{4-[6-Hydroxy-2-(1H-imidazol-1-yl)-5-(propan-2-yl)pyrimidin-4-yl]-1H-pyrazol-1-yl}-N-{2-[methyl-(phenyl)amino]ethyl}-acetamide] | 14 | 1400 | 
